Data published in patent US12077503B2, “Substituted cyclic amides and their use as herbicides” (FMC CORPORATION, priority 2015, dated 2024).

Experiments:
Type in all cases: in vivo
[1] = tested on: Kochia (Kochia scoparia); assay: Test A preemergence
Procedure, shortened: (§1)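 Seeds sprayed preemergence with a directed soil spray, or plants at 2 to 10 cm height and one- to two-leaf stage sprayed postemergence, with test chemicals in a non-phytotoxic solvent mixture containing surfactant, in loam soil–sand blend. Injury rated visually against untreated controls after about 10 d in greenhouse, 0 (no effect) to 100 (complete control).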

[2] = tested on: barnyardgrass (Echinochloa crus-galli); assay: Test A preemergence
Procedure, shortened: as §1

[3] = tested on: giant foxtail (Setaria faberii); assay: Test A preemergence
Procedure, shortened: as §1

[4] = tested on: pigweed (Amaranthus retroflexus); assay: Test A preemergence
[5] = tested on: ragweed (common ragweed, Ambrosia elatior); assay: Test A preemergence
Procedure, shortened: as §1

[6] = tested on: ryegrass, Italian (Italian ryegrass, Lolium multiflorum); assay: Test A preemergence
Procedure, shortened: as §1

[7] = tested on: Galium (catchweed bedstraw, Galium aparine); assay: Test A postemergence; conditions: postemergence, 0 to 100 scale (0 no effect, 100 complete control)
Procedure, shortened: as §1

[8] = tested on: Kochia (Kochia scoparia); assay: Test A postemergence; conditions: postemergence, 0 to 100 scale (0 no effect, 100 complete control)
Procedure, shortened: as §1

[9] = tested on: barnyardgrass (Echinochloa crus-galli); assay: Test A postemergence; conditions: postemergence, 0 to 100 scale (0 no effect, 100 complete control)
Procedure, shortened: as §1

[10] = tested on: blackgrass (Alopecurus myosuroides); assay: Test A postemergence; conditions: postemergence, 0 to 100 scale (0 no effect, 100 complete control)
Procedure, shortened: as §1

[11] = tested on: corn (Zea mays); assay: Test A postemergence; conditions: postemergence, 0 to 100 scale (0 no effect, 100 complete control)
Procedure, shortened: as §1

[12] = tested on: giant foxtail (Setaria faberii); assay: Test A postemergence; conditions: postemergence, 0 to 100 scale (0 no effect, 100 complete control)
Procedure, shortened: as §1

[13] = tested on: pigweed (Amaranthus retroflexus); assay: Test A postemergence; conditions: postemergence, 0 to 100 scale (0 no effect, 100 complete control)
Procedure, shortened: as §1

[14] = tested on: ragweed (common ragweed, Ambrosia elatior); assay: Test A postemergence; conditions: postemergence, 0 to 100 scale (0 no effect, 100 complete control)
Procedure, shortened: as §1

[15] = tested on: ryegrass, Italian (Italian ryegrass, Lolium multiflorum); assay: Test A postemergence; conditions: postemergence, 0 to 100 scale (0 no effect, 100 complete control)
Procedure, shortened: as §1

[16] = tested on: wheat (Triticum aestivum); assay: Test A postemergence; conditions: postemergence, 0 to 100 scale (0 no effect, 100 complete control)
Procedure, shortened: as §1

[17] = tested on: barnyardgrass (Echinochloa crus-galli); assay: Test B flooded paddy test; conditions: Flood, 0 to 100 scale where 0 is no effect and 100 is complete control, 13 to 15 d
Procedure, shortened: (§2)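 Evaluation by eye, against controls, occurred 13–15 d post-treatment in a greenhouse, using a 0 (no effect) to 100 (complete control) scale. Application was into the paddy water, 3 cm deep over the soil, on 2-leaf plants.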

[18] = tested on: ducksalad (Heteranthera limosa); assay: Test B flooded paddy test; conditions: Flood, 0 to 100 scale where 0 is no effect and 100 is complete control, 13 to 15 d
Procedure, shortened: as §2

[19] = tested on: rice (Oryra sativa); assay: Test B flooded paddy test; conditions: Flood, 0 to 100 scale where 0 is no effect and 100 is complete control, 13 to 15 d
Procedure, shortened: as §2

[20] = tested on: sedge, umbrella (small-flower umbrella sedge, Cyperus difformis); assay: Test B flooded paddy test; conditions: Flood, 0 to 100 scale where 0 is no effect and 100 is complete control, 13 to 15 d
Procedure, shortened: as §2

[21] = 125 g ai/ha, Preemergence, visual injury after approximately 10 d, 0 to 100 scale where 0 is no effect and 100 is complete control
[22] = 500 g ai/ha, preemergence, 0 to 100 scale, 0 = no effect, 100 = complete control
[23] = 125 g ai/ha, visual rating after approx. 10 d
[24] = 500 g ai/ha, visual injury, approx. 10 d
[25] = 125 g ai/ha, preemergence, visual rating after approx. 10 d, 0 to 100 scale where 0 is no effect and 100 is complete control
[26] = 125 g ai/ha, visual injury after approximately 10 d

O=C1NCC(c2cccc(C(F)(F)F)c2)C1C(=O)Nc1ccc(F)cc1Cl (racemic) [Compound 676]
Plant response rating, Kochia [1, 21]: 0 | Plant response rating, Kochia [1, 22]: 0 | Plant response rating, Barnyardgrass [2, 21]: 70 | Plant response rating, Barnyardgrass [2, 22]: 90 | Plant response rating, Foxtail, Giant [3, 21]: 80 | Plant response rating, Foxtail, Giant [3, 22]: 90 | Plant response rating, Pigweed [4, 21]: 0 | Plant response rating, Pigweed [4, 22]: 0 | Plant response rating, Ragweed [5, 21]: 0 | Plant response rating, Ragweed [5, 22]: 0 | Plant response rating, Ryegrass, Italian [6, 21]: 0 | Plant response rating, Ryegrass, Italian [6, 22]: 20 | Plant response rating, Galium [7, 23]: 0 | Plant response rating, Galium [7, 24]: 40 | Plant response rating, Kochia [8, 23]: 0 | Plant response rating, Kochia [8, 24]: 0 | Plant response rating, Barnyardgrass [9, 23]: 50 | Plant response rating, Barnyardgrass [9, 24]: 80 | Plant response rating, Blackgrass [10, 23]: 20 | Plant response rating, Blackgrass [10, 24]: 40 | Plant response rating, Corn [11, 23]: 0 | Plant response rating, Corn [11, 24]: 50 | Plant response rating, Foxtail, Giant [12, 23]: 20 | Plant response rating, Foxtail, Giant [12, 24]: 80 | Plant response rating, Pigweed [13, 23]: 0 | Plant response rating, Pigweed [13, 24]: 0 | Plant response rating, Ragweed [14, 23]: 0 | Plant response rating, Ragweed [14, 24]: 0 | Plant response rating, Ryegrass, Italian [15, 23]: 0 | Plant response rating, Ryegrass, Italian [15, 24]: 20 | Plant response rating, Wheat [16, 23]: 0 | Plant response rating, Wheat [16, 24]: 20 | Plant response rating, Barnyardgrass ([17]; 500 g ai/ha): 80 | Plant response rating, Ducksalad ([18]; 500 g ai/ha): 85 | Plant response rating, Rice ([19]; 500 g ai/ha): 15 | Plant response rating, Sedge, Umbrella ([20]; 500 g ai/ha): 0

O=C1NCC(c2cccc(Br)c2)C1C(=O)Nc1ccc(F)cc1F (racemic) [Compound 687]
Plant response rating, Kochia [1, 21]: 0 | Plant response rating, Kochia [1, 22]: 40 | Plant response rating, Barnyardgrass [2, 21]: 90 | Plant response rating, Barnyardgrass [2, 22]: 90 | Plant response rating, Foxtail, Giant [3, 21]: 90 | Plant response rating, Foxtail, Giant [3, 22]: 90 | Plant response rating, Pigweed [4, 25]: 0 | Plant response rating, Pigweed [4, 22]: 30 | Plant response rating, Ragweed [5, 25]: 0 | Plant response rating, Ragweed [5, 22]: 0 | Plant response rating, Ryegrass, Italian [6, 25]: 0 | Plant response rating, Ryegrass, Italian [6, 22]: 20 | Plant response rating, Galium [7, 26]: 0 | Plant response rating, Galium [7, 24]: 20 | Plant response rating, Kochia [8, 26]: 0 | Plant response rating, Kochia [8, 24]: 30 | Plant response rating, Barnyardgrass [9, 23]: 90 | Plant response rating, Barnyardgrass [9, 24]: 90 | Plant response rating, Blackgrass [10, 23]: 30 | Plant response rating, Blackgrass [10, 24]: 40 | Plant response rating, Corn [11, 26]: 0 | Plant response rating, Corn [11, 24]: 70 | Plant response rating, Foxtail, Giant [12, 26]: 80 | Plant response rating, Foxtail, Giant [12, 24]: 90 | Plant response rating, Pigweed [13, 26]: 0 | Plant response rating, Pigweed [13, 24]: 20 | Plant response rating, Ragweed [14, 26]: 30 | Plant response rating, Ragweed [14, 24]: 30 | Plant response rating, Ryegrass, Italian [15, 26]: 20 | Plant response rating, Ryegrass, Italian [15, 24]: 40 | Plant response rating, Wheat [16, 26]: 0 | Plant response rating, Wheat [16, 24]: 60 | Plant response rating, Barnyardgrass ([17]; 250 g ai/ha): 35 | Plant response rating, Ducksalad ([18]; 250 g ai/ha): 80 | Plant response rating, Rice ([19]; 250 g ai/ha): 0 | Plant response rating, Sedge, Umbrella ([20]; 250 g ai/ha): 0

COC(=O)c1ccccc1NC(=O)C1C(=O)NCC1c1cccc(C(F)(F)F)c1 (racemic) [Compound 705]
Plant response rating, Kochia [1, 25]: 0 | Plant response rating, Kochia [1, 22]: 0 | Plant response rating, Barnyardgrass [2, 25]: 0 | Plant response rating, Barnyardgrass [2, 22]: 0 | Plant response rating, Foxtail, Giant [3, 25]: 0 | Plant response rating, Foxtail, Giant [3, 22]: 0 | Plant response rating, Pigweed [4, 25]: 0 | Plant response rating, Pigweed [4, 22]: 0 | Plant response rating, Ragweed [5, 25]: 0 | Plant response rating, Ragweed [5, 22]: 0 | Plant response rating, Ryegrass, Italian [6, 25]: 0 | Plant response rating, Ryegrass, Italian [6, 22]: 0 | Plant response rating, Galium [7, 26]: 0 | Plant response rating, Galium [7, 24]: 0 | Plant response rating, Kochia [8, 26]: 0 | Plant response rating, Kochia [8, 24]: 0 | Plant response rating, Barnyardgrass [9, 26]: 0 | Plant response rating, Barnyardgrass [9, 24]: 0 | Plant response rating, Blackgrass [10, 26]: 0 | Plant response rating, Blackgrass [10, 24]: 0 | Plant response rating, Corn [11, 26]: 0 | Plant response rating, Corn [11, 24]: 0 | Plant response rating, Foxtail, Giant [12, 26]: 0 | Plant response rating, Foxtail, Giant [12, 24]: 0 | Plant response rating, Pigweed [13, 26]: 0 | Plant response rating, Pigweed [13, 24]: 0 | Plant response rating, Ragweed [14, 26]: 0 | Plant response rating, Ragweed [14, 24]: 0 | Plant response rating, Ryegrass, Italian [15, 26]: 0 | Plant response rating, Ryegrass, Italian [15, 24]: 0 | Plant response rating, Wheat [16, 26]: 0 | Plant response rating, Wheat [16, 24]: 0 | Plant response rating, Barnyardgrass ([17]; 500 g ai/ha): 0 | Plant response rating, Ducksalad ([18]; 500 g ai/ha): 0 | Plant response rating, Rice ([19]; 500 g ai/ha): 0 | Plant response rating, Sedge, Umbrella ([20]; 500 g ai/ha): 0
